The source of these data is patent US12303509B2, “Compounds for the treatment of BRAF-associated diseases and disorders” (Pfizer Inc., priority 2020, dated 2025).

Data set [1] deals with full-length FLAG-tagged B-Raf(V600E) (Homo sapiens (Human), UniProt P15056, V600E). Put plainly: BRAF V600E enzyme assay (TR-FRET competitive displacement). Type of data set: binding. The method in brief:
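Displacement of 50 nM Tracer 1710 from 5 nM full-length N-terminally FLAG-tagged B-Raf(V600E), detected by TR-FRET with 0.5 nM Eu anti-FLAG antibody, in 25 mM HEPES pH 7.4, 10 mM MgCl2, 2% DMSO; 60 min at ~22 °C. Compounds 11-point, 3-fold from 10 μM; IC50 from 4-parameter fit at 50 POC.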
In general terms: In TR-FRET formats the signal depends on donor and acceptor labels being close together.

The next data set relates to A375 cells. Put plainly: Cellular phospho-ERK inhibition assay in A375 cells. Type of data set: cell-based. The following applies: Homo sapiens, A-375, A375 cells (head prints A357), 2 hours treatment, read-out: A357 cell IC50. In outline: (§1)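 A375 (DMEM) or H1755 (RPMI) cells in 10% FBS treated 2 h at 37 °C with 9-point series, 66 pM–10 μM, 0.25% DMSO. Phospho-ERK1/2 (Thr202/Tyr204) measured by In Cell Western, normalised to GAPDH and to DMSO and 10 μM binimetinib controls; IC50 by 4-parameter fit.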

A short description of data set [2]: PK (free brain-to-free plasma ratio) (mouse). The following applies: male CD-1 mice, oral gavage 10 mg/kg, unbound brain-to-unbound plasma, read-out: B/P ratio (free). Type of data set: in vivo. Here is the method: The ability of representative compounds to penetrate the BBB in mice was determined by evaluating the unbound brain-to-unbound plasma (also referred to as free brain-to-free plasma) concentration ratio in male CD-1 mice.
Brain compound levels were generated from oral mouse PK dosing with typical sampling times of 2, 4, 8, 12 and 24 hours post oral gavage dosing at 10 mg/kg. Brain samples were stored at −20±5° C. prior to analysis. Concentrations of test compound in mouse brain homogenate were determined by liquid chromatography tandem mass spectrometry (LC-MS/MS) following protein precipitation with acetonitrile. A 12-point calibration curve, ranging from 0.5 to 10,000 ng/mL, was prepared in duplicate. A solution of 400 μg/mL of test compound in dimethyl sulfoxide (DMSO) was serially diluted (3-fold) in 100% DMSO, and then 2.5 μL of each standard solution was added to 100 μL of naïve male CD-1 mice brain homogenate. To mimic the extraction in the standard curve, 2.5 μL of DMSO was added to all test samples. Both calibration and test brain homogenate samples were spiked with 10 μL of an IS (1 μg/mL of a structural analog). Brain homogenate was generated by adding 0.75 mL of 4:1 water:MeOH to each brain sample followed by homogenization for 1 minute with bead beater tubes a 6 m/s using an MP Fast Prep-24®. Proteins were precipitated from 100 μL of brain homogenate sample by the addition of 300 μL of acetonitrile. Samples were vortex-mixed for 5 minutes and spun in an Allegra X-12R centrifuge (Beckman Coulter, Fullerton, CA; SX4750A rotor) for 15 min at approximately 1,500×g at 4° C. A 100 μL aliquot of each supernatant was transferred via a 550 μL Personal Pipettor (Apricot Designs, Monrovia, CA) to 96-well plates and diluted 1:1 with HPLC grade water. The resulting plates were sealed with aluminum for LC-MS/MS analysis.
Brain-to-plasma ratios were calculated using the concentration of compound measured in the brain divided by the concentration of compound measured in the plasma. Brain-to-plasma ratios were always generated from a single animal and time point. Free brain-to-free plasma ratios were calculated by multiplying the brain-to-plasma ratio by the in vitro brain homogenate free fraction divided by the in vitro plasma free fraction using the following equation: (B/P)*(Bfu/Pfu). Table C provides the free brain-to-free plasma ratios of compounds disclosed herein.

Data set [3] can be described thus: MDR1 LLC-PK1 and BCRP MDCKII permeability assay: permeability coefficient (Papp). Type of data set: in vitro ADME. The source says:
(§2) Final organic concentration in the assay was 1%.

In a further data set the target is BCRP (Homo sapiens (Human), UniProt Q9UNQ0). Put plainly: BCRP MDCKII permeability assay: efflux ratio. As to conditions: dog. Type of data set: in vitro ADME.
Another data set concerns the target P-gp (MDR1) (Homo sapiens (Human), UniProt P08183). Put plainly: MDR1 LLC-PK1 permeability assay: efflux ratio. Format: in vitro ADME. As to conditions: pig.
Excerpt: as §2

For a further data set, the system named is H1755 cells. Put plainly: Cellular phospho-ERK inhibition assay in H1755 cells. Type of data set: cell-based. The following applies: Homo sapiens, NCI-H1755, 2 hours treatment, read-out: H1755 Cell IC50. In outline: as §1
The mark [4] stands for this setting: averaged IC50, TR-FRET tracer displacement, 60 min.

Counter-ions that a name gives are not always drawn. Like-named read-outs stand apart in the source and are kept apart here.

Chain of full-length FLAG-tagged B-Raf(V600E) (P15056 whole entry V600E): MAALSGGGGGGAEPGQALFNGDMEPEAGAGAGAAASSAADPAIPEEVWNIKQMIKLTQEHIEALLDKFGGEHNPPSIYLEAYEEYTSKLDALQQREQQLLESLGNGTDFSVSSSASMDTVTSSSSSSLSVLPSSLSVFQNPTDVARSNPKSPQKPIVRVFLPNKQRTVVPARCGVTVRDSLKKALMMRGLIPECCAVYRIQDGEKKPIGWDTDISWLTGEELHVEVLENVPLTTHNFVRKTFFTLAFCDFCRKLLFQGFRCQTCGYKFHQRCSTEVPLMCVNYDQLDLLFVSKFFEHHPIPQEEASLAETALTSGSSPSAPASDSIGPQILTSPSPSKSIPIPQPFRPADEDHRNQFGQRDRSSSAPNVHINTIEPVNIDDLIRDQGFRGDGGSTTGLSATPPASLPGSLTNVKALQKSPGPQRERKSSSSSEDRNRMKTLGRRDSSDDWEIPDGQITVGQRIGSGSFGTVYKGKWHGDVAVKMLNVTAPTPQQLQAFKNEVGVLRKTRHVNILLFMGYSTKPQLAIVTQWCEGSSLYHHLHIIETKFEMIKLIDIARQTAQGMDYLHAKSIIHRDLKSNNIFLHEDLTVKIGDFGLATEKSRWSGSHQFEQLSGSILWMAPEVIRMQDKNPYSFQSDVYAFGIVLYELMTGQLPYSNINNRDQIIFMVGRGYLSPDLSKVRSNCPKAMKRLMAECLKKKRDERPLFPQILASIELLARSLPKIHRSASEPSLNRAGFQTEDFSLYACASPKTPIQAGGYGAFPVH
Chain of BCRP (Q9UNQ0 whole entry): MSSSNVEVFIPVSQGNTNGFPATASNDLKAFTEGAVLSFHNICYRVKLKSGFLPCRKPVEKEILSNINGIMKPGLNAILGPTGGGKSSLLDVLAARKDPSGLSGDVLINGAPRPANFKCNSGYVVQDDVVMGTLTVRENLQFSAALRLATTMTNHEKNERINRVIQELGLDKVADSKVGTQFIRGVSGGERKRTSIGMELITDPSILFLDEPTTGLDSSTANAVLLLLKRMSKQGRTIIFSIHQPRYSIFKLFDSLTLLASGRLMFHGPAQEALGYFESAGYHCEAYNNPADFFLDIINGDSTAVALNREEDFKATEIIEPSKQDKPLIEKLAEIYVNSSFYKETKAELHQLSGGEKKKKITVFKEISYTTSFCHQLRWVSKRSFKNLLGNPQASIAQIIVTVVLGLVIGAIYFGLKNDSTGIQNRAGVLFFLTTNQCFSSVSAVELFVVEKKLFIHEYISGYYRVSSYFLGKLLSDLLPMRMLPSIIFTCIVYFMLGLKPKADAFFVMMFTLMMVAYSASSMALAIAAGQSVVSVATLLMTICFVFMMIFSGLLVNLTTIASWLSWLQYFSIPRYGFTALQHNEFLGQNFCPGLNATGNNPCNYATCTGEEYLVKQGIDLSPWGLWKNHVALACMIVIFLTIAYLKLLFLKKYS
Chain of P-gp (MDR1) (P08183 whole entry, species assumed): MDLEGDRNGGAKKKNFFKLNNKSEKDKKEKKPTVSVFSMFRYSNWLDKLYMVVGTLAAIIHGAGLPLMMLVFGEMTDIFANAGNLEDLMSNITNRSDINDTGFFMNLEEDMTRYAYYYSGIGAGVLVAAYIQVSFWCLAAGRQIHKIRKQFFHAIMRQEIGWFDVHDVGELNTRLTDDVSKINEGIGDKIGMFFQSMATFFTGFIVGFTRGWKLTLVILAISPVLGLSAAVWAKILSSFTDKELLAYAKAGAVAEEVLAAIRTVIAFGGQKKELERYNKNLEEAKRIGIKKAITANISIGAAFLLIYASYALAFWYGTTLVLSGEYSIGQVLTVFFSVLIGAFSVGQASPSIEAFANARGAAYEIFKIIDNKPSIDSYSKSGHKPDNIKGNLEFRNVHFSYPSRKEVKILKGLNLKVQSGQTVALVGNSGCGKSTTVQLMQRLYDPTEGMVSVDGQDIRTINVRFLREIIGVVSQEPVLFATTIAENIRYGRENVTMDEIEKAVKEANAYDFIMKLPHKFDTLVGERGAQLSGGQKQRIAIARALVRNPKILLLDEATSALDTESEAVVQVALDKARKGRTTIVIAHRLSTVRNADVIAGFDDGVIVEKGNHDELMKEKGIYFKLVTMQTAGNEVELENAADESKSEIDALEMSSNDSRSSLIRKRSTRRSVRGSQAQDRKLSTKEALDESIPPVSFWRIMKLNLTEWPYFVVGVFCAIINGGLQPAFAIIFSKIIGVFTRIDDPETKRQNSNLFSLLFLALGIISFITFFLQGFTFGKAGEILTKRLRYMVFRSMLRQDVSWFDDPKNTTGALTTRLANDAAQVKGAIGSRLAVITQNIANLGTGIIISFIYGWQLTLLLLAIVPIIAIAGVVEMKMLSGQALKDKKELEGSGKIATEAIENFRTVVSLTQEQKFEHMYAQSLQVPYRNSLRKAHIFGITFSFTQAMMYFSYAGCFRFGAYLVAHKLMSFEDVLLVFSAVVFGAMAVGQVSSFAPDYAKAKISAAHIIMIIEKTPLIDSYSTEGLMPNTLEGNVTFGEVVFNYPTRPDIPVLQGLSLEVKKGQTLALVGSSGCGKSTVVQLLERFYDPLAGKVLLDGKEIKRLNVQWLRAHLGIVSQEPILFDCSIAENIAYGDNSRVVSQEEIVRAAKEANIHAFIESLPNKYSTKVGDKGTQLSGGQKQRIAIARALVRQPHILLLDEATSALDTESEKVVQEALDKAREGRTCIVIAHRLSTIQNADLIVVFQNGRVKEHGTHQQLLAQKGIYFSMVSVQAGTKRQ

Regarding `Cn1cnc2ccc(Nc3c(F)ccc(NS(=O)(=O)N4CC[C@@H](F)C4)c3Cl)c(Cl)c2c1=O` [Example 19, (R)-N-(2-chloro-3-((5-chloro-3-methyl-4-oxo-3,4-dihydroquinazolin-6-yl)amino)-4-fluorophenyl)-3-fluoropyrrolidine-1-sulfonamide], the half-maximal inhibitory concentration (IC50) in data set [1] (setting [4]) was determined as 4 nM; in the data set with A375 cells it was 5 nM; with H1755 cells, 39 nM. For the same compound, the Kp in data set [2] was in the range of 0.61 to 0.83. The Papp at 2 h, 1 µM in data set [3] was 30 ×10⁻⁶ cm/s. The efflux ratio at 2 h, 1 µM at BCRP worked out at 1.3; at P-gp (MDR1), 2.1.
Take `Cn1cnc2ccc(Oc3c(F)ccc(NS(=O)(=O)N4CC[C@@H](F)C4)c3Cl)c(F)c2c1=O` [Example 20, (R)-N-(2-chloro-4-fluoro-3-((5-fluoro-3-methyl-4-oxo-3,4-dihydroquinazolin-6-yl)oxy)phenyl)-3-fluoropyrrolidine-1-sulfonamide]: the 50% inhibitory concentration (IC50) in data set [1] (setting [4]) worked out at 3 nM; with A375 cells, 2 nM; with H1755 cells, 29 nM. For the same compound, the Kp in data set [2] was 0.4 to 0.58. The Papp at 2 h, 1 µM in data set [3] was found to be 37 ×10⁻⁶ cm/s. For the same compound, the efflux ratio at 2 h, 1 µM was 1.8 on BCRP and 2.2 at P-gp (MDR1).
As for `Cn1cnc2ccc(Nc3c(F)ccc(NS(=O)(=O)N4CC[C@@H](OC(F)F)C4)c3Cl)c(Cl)c2c1=O` [Example 29, (R)-N-(2-chloro-3-((5-chloro-3-methyl-4-oxo-3,4-dihydroquinazolin-6-yl)amino)-4-fluorophenyl)-3-(difluoromethoxy)pyrrolidine-1-sulfonamide], the results for the IC50 (in data set [1] (setting [4]); in the data set with A375 cells; in the data set on H1755 cells) were 3 nM, 9 nM and 35 nM, respectively. Besides, in data set [2], the Kp lay in the range of 0.41 to 0.55. Besides, the apparent permeability (Papp) at 2 h, 1 µM in data set [3] turned out to be 28 ×10⁻⁶ cm/s. Moreover, the efflux ratio at 2 h, 1 µM on BCRP is 2.9; at P-gp (MDR1), 1.7.
On to `Cn1cnc2ccc(Nc3c(F)ccc(NS(=O)(=O)N4CC5CC5C4)c3Cl)c(F)c2c1=O` (stereo not drawn) [Example 30, N-(2-chloro-4-fluoro-3-((5-fluoro-3-methyl-4-oxo-3,4-dihydroquinazolin-6-yl)amino)phenyl)-3-azabicyclo[3.1.0]hexane-3-sulfonamide trifluoroacetate], for which the results for the IC50 (in data set [1] (setting [4]); in the data set on A375 cells; in the data set on H1755 cells) were 2 nM, 4 nM and 42 nM, respectively. Further, the Kp in data set [2] was in the range of 0.51 to 0.64. The Papp at 2 h, 1 µM in data set [3] turned out to be 40 ×10⁻⁶ cm/s. The results for the efflux ratio at 2 h, 1 µM on BCRP and at P-gp (MDR1) were 1.2 and 1.5, respectively.
Take `CO[C@@H]1CCN(S(=O)(=O)Nc2ccc(F)c(Oc3ccc4ncn(C)c(=O)c4c3Cl)c2Cl)C1` [Example 37, (R)-N-(2-chloro-3-((5-chloro-3-methyl-4-oxo-3,4-dihydroquinazolin-6-yl)oxy)-4-fluorophenyl)-3-methoxypyrrolidine-1-sulfonamide]: the results for the IC50 (in data set [1] (setting [4]); with A375 cells; in the data set on H1755 cells) were 4 nM, 4 nM and 33 nM, respectively. In addition, the Kp in data set [2] was in the range of 0.66 to 0.73. Also, the Papp at 2 h, 1 µM in data set [3] came to 29 ×10⁻⁶ cm/s. For the same compound, the efflux ratio at 2 h, 1 µM is 1.5 at BCRP and 2.4 on P-gp (MDR1).
Turning to `Cn1cnc2ccc(Oc3c(F)ccc(NS(=O)(=O)N4CC[C@@H](F)C4)c3Cl)c(Cl)c2c1=O` [Example 38, (R)-N-(2-chloro-3-((5-chloro-3-methyl-4-oxo-3,4-dihydroquinazolin-6-yl)oxy)-4-fluorophenyl)-3-fluoropyrrolidine-1-sulfonamide], the IC50 in data set [1] (setting [4]) came out at 2 nM; in the data set with A375 cells it was 5 nM; with H1755 cells it was 27 nM. Moreover, the Kp in data set [2] is 0.2 to 0.24. The compound further came in with an apparent permeability coefficient (Papp) at 2 h, 1 µM in data set [3] of 33 ×10⁻⁶ cm/s. In addition, the efflux ratio at 2 h, 1 µM was 1.8 at BCRP and 1.2 at P-gp (MDR1).
In the case of `Cn1cnc2ccc(Nc3c(F)c(F)cc(NS(=O)(=O)N4CCCC4)c3Cl)c(F)c2c1=O` [Example 40, N-(2-chloro-4,5-difluoro-3-((5-fluoro-3-methyl-4-oxo-3,4-dihydroquinazolin-6-yl)amino)phenyl)pyrrolidine-1-sulfonamide trifluoroacetate], the values for the half-inhibitory concentration (IC50) (in data set [1] (setting [4]); in the data set on A375 cells; with H1755 cells) were 2 nM, 4 nM and 50 nM, respectively. Besides, in data set [2], the Kp fell in the range of 0.55 to 0.72. The same compound returned a Papp at 2 h, 1 µM in data set [3] of 29 ×10⁻⁶ cm/s. Further, the efflux ratio at 2 h, 1 µM at BCRP is 2.3; at P-gp (MDR1), 2.
`Cn1cnc2ccc(Nc3c(F)c(F)cc(NS(=O)(=O)N4CC5CC4C5)c3Cl)c(F)c2c1=O` [Example 41, N-(2-chloro-4,5-difluoro-3-((5-fluoro-3-methyl-4-oxo-3,4-dihydroquinazolin-6-yl)amino)phenyl)-2-azabicyclo[2.1.1]hexane-2-sulfonamide trifluoroacetate]: the figures for the IC50 (in data set [1] (setting [4]); in the data set with A375 cells; with H1755 cells) were 3 nM, 5 nM and 42 nM, respectively. In data set [2], the Kp lay within 0.35 to 0.45. The Papp at 2 h, 1 µM in data set [3] was found to be 29 ×10⁻⁶ cm/s. In addition, the values for the efflux ratio at 2 h, 1 µM on BCRP and on P-gp (MDR1) were 2.5 and 1.9, respectively.
In the case of `Cn1cnc2ccc(Oc3c(F)ccc(NS(=O)(=O)N4CCCC4)c3Cl)c(F)c2c1=O` [Example 44, N-(2-chloro-4-fluoro-3-((5-fluoro-3-methyl-4-oxo-3,4-dihydroquinazolin-6-yl)oxy)phenyl)pyrrolidine-1-sulfonamide trifluoroacetate], the IC50 in data set [1] (setting [4]) turned out to be 2 nM; in the data set with A375 cells, 3 nM; in the data set with H1755 cells it was 56 nM. Further, in data set [2], the Kp is 0.35 to 0.47. Also, in data set [3], the Papp at 2 h, 1 µM worked out at 34 ×10⁻⁶ cm/s. The results for the efflux ratio at 2 h, 1 µM on BCRP and on P-gp (MDR1) were 0.9 and 1.4, respectively.
With `CO[C@@H]1CCN(S(=O)(=O)Nc2ccc(F)c(Oc3ccc4ncn(C)c(=O)c4c3F)c2Cl)C1` [Example 48, (R)-N-(2-chloro-4-fluoro-3-((5-fluoro-3-methyl-4-oxo-3,4-dihydroquinazolin-6-yl)oxy)phenyl)-3-methoxypyrrolidine-1-sulfonamide trifluoroacetate], the IC50 in data set [1] (setting [4]) is 3 nM; in the data set on A375 cells, 1 nM; in the data set with H1755 cells it was 36 nM. Moreover, the Kp in data set [2] lay within 0.29 to 0.33. In addition, in data set [3], the Papp at 2 h, 1 µM was determined as 29 ×10⁻⁶ cm/s. The efflux ratio at 2 h, 1 µM at BCRP came out at 1.7; at P-gp (MDR1) it was 2.2.
For the compound `Cc1c(Oc2c(F)ccc(NS(=O)(=O)N3CC[C@@H](F)C3)c2Cl)ccc2ncn(C)c(=O)c12` [Example 70, (R)-N-(2-chloro-3-((3,5-dimethyl-4-oxo-3,4-dihydroquinazolin-6-yl)oxy)-4-fluorophenyl)-3-fluoropyrrolidine-1-sulfonamide], the IC50 in data set [1] is 8 nM; in the data set with A375 cells, 14 nM; in the data set on H1755 cells, 43 nM. In data set [2], the Kp lay within 0.17 to 0.36. Also, the Papp at 2 h, 1 µM in data set [3] is 25 ×10⁻⁶ cm/s. The figures for the efflux ratio at 2 h, 1 µM at BCRP and at P-gp (MDR1) were 1 and 1.8, respectively.
In the case of `COC1CN(S(=O)(=O)Nc2ccc(F)c(Nc3ccc4ncn(C)c(=O)c4c3Cl)c2Cl)C1` [Example 129, N-(2-chloro-3-((5-chloro-3-methyl-4-oxo-3,4-dihydroquinazolin-6-yl)amino)-4-fluorophenyl)-3-methoxyazetidine-1-sulfonamide], the half-inhibitory concentration (IC50) in data set [1] (setting [4]) was determined as 12 nM; in the data set on A375 cells it was 9 nM; in the data set on H1755 cells it was 37 nM. The Kp in data set [2] was in the range of 0.18 to 0.22. In data set [3], this compound returned a Papp at 2 h, 1 µM of 37 ×10⁻⁶ cm/s. For the same compound, the efflux ratio at 2 h, 1 µM on BCRP is 5.3; at P-gp (MDR1), 1.6.

By IC50 is commonly meant the point on the concentration scale where inhibition reaches its midpoint. Usually Papp stands for the rate of passage across a membrane or cell layer, normalised by area and donor concentration. High values mean fast passage, low ones slow passage. For orientation: efflux ratio means a quotient of directional permeabilities that is used to spot active efflux.
